From patent US20230046416A1 (Soteria Biotherapeutics, Inc., priority 2019, published 2023)

System: AZ21
Assay: Biolayer interferometry, Ab59 binding to immobilized AZ21
Protocol: Binding kinetics between BCl-2 fusion protein Ab59 and AZ-21 was assayed by biolayer interferometry. […] Curves represent measured data points on an Octet RED384.

Sequence of AZ21 (P10415 1-207 C158A limits assumed): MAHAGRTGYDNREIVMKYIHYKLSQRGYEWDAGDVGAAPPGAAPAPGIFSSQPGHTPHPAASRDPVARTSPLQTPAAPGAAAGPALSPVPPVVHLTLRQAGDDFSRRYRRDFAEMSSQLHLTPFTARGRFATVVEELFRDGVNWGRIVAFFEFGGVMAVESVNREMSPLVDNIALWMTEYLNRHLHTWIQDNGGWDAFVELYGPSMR

“Ab59: heterodimeric Fc fusion protein: BCl-2 C158A linked to a human IgG1 Fc, plus a second human IgG1 Fc domain” was tested, and the “binding to AZ21 in the presence of ABT-199” value (with ABT-199, FIG. 25B) was “potent and reversible binding” and the “binding to AZ21 in the absence of ABT-199” value (without ABT-199, FIG. 25B) was “no significant binding”.
